Several values for one entry are separate records, joined by “and”; a condition that tells them apart may be missing. Identical values can stand only once.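 Cultured in 96-well plates, cells were exposed to test compound for 48 hours across five concentrations. At the GI50, growth is halved. The concentration for full growth arrest is given as TGI.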

Some test systems named below: COLO 205 colon; EKVX NSCLC; MDA-MB-231 breast; RPMI-8226 leukemia; SF-295 CNS; SK-MEL-5 melanoma; SN12C renal; SR leukemia; T-47D breast; U251 CNS.
Holding throughout (experiment): NCI-60 cell line screen, 48 h

`COc1ccc(-c2nn(-c3cccc(Cl)c3)cc2-c2c(C#N)c(=O)n3[nH]c(-c4ccc(C)cc4)nc3c2C#N)cc1`: the GI50 is 2.32 µM with COLO 205 colon; 1.62 µM with EKVX NSCLC; 1.16 µM in the test on MDA-MB-231 breast; 4.57 µM in the test with RPMI-8226 leukemia; 1.2 µM in the test with SF-295 CNS; 6.06 µM with SK-MEL-5 melanoma. The GI50 is 4.52 µM in the test with SN12C renal, 1.43 µM in the test with SR leukemia, 5.15 µM in the test with T-47D breast and 0.797 µM with U251 CNS. For the same compound, the TGI stood at 8.15 µM with COLO 205 colon; 9.2 µM in the test with EKVX NSCLC; 5.25 µM with MDA-MB-231 breast; 33 µM with RPMI-8226 leukemia; 4.14 µM in the test with SF-295 CNS; 14 µM with SK-MEL-5 melanoma. Besides, the TGI in the test with SN12C renal stood at 11.5 µM; in the test on SR leukemia it was 10.1 µM; with T-47D breast, 12.1 µM; with U251 CNS it was 1.59 µM.
Regarding `CN1C(=O)C(=Cc2cn(Cc3ccccc3)c3ccccc23)C(=O)N(C)C1=O`, the GI50 in the test on COLO 205 colon was 0.712 µM; with EKVX NSCLC, 35.8 µM; in the test with MDA-MB-231 breast, 54.1 µM; with RPMI-8226 leukemia, 26.9 µM; in the test with SF-295 CNS, 0.732 µM; in the test on SK-MEL-5 melanoma it was 25.7 µM. The GI50 was 54.8 µM in the test with SN12C renal, 43.1 µM in the test with SR leukemia, 3.91 µM in the test with T-47D breast and 18.2 µM in the test with U251 CNS. The TGI is 6.67 µM with COLO 205 colon; over 100 µM in the test with EKVX NSCLC; over 100 µM with MDA-MB-231 breast; over 100 µM with RPMI-8226 leukemia; over 100 µM in the test on SF-295 CNS; over 100 µM in the test on SK-MEL-5 melanoma. Further, the TGI is over 100 µM in the test with SN12C renal, over 100 µM in the test on SR leukemia, over 75.3 µM in the test with T-47D breast and over 71.3 µM in the test with U251 CNS.
As for `COc1ccc(-c2cn(-c3cccc(C(=O)/C=C/c4ccc(O)c(OC)c4)c3)c(=O)[nH]2)cc1`, the GI50 in the test on COLO 205 colon is 4.79 µM; in the test on EKVX NSCLC it was 8.4 µM; in the test with MDA-MB-231 breast, 4.06 µM; in the test on RPMI-8226 leukemia it was 1.35 µM; in the test on SF-295 CNS, 11.2 µM; with SK-MEL-5 melanoma, 2.69 µM. In addition, the GI50 is 3.47 µM with SN12C renal, 2.24 µM in the test on SR leukemia, 3.27 µM in the test on T-47D breast and 2.86 µM in the test with U251 CNS. In addition, the TGI with COLO 205 colon was 15.3 µM; with EKVX NSCLC, over 100 µM; with MDA-MB-231 breast, over 54.3 µM; in the test on RPMI-8226 leukemia it was 3.68 µM; with SF-295 CNS it was over 85.4 µM; with SK-MEL-5 melanoma, 11 µM. The TGI is over 100 µM in the test on SN12C renal, over 100 µM in the test on SR leukemia, 40.8 µM in the test with T-47D breast and 15.3 µM in the test on U251 CNS.
`O=C(O)c1ccc([S-])cc1.[Au+].c1ccc(CN2[CH-]N(Cc3ccccc3)C(c3ccccc3)=C2c2ccccc2)cc1`: the GI50 is 0.269 µM in the test on COLO 205 colon; 0.274 µM in the test with EKVX NSCLC; 0.304 µM in the test with MDA-MB-231 breast; 0.323 µM in the test on RPMI-8226 leukemia; 0.242 µM with SF-295 CNS; 0.281 µM in the test on SK-MEL-5 melanoma. The GI50 in the test with SN12C renal was 0.305 µM; in the test on SR leukemia it was 0.429 µM; with T-47D breast, 0.312 µM; with U251 CNS, 0.321 µM. The TGI was found to be 0.824 µM in the test with COLO 205 colon; 1.53 µM with EKVX NSCLC; 1.18 µM with MDA-MB-231 breast; 2 µM with RPMI-8226 leukemia; 1.09 µM in the test on SF-295 CNS; 1.03 µM in the test with SK-MEL-5 melanoma. The TGI in the test on SN12C renal was determined as 1.3 µM; in the test with SR leukemia, 2.76 µM; with T-47D breast, 1.53 µM; in the test on U251 CNS, 1.36 µM.
Take `Cc1ccc(C(=O)N2CCN(C(=O)c3ccc(C)cc3)c3ccccc32)cc1`: the TGI with COLO 205 colon is 32.2 µM; in the test with EKVX NSCLC, over 100 µM; with MDA-MB-231 breast it was over 100 µM; in the test with RPMI-8226 leukemia it was over 58.2 µM; in the test with SF-295 CNS, over 43.1 µM; in the test with SK-MEL-5 melanoma it was 43.5 µM. Moreover, the TGI in the test on SN12C renal is over 100 µM; in the test with SR leukemia, over 100 µM; in the test with T-47D breast, over 100 µM; in the test with U251 CNS, 24.9 µM.
With `O=C(NCCN1CCC(O)CC1)c1cc2c(o1)C(=O)c1ccccc1C2=O`, the GI50 is 0.078 µM in the test with COLO 205 colon; 0.979 µM in the test with EKVX NSCLC; 0.377 µM in the test on MDA-MB-231 breast; 1.58 µM in the test with RPMI-8226 leukemia; 0.149 µM in the test with SF-295 CNS; 0.141 µM with SK-MEL-5 melanoma. Further, the GI50 in the test with SN12C renal was 0.175 µM; with SR leukemia it was 0.396 µM; with T-47D breast it was 0.376 µM; in the test with U251 CNS, 0.335 µM. Also, the TGI in the test on COLO 205 colon worked out at 0.228 µM; with EKVX NSCLC, 2.49 µM; in the test on MDA-MB-231 breast, 2.9 µM; in the test on RPMI-8226 leukemia it was 4.72 µM; in the test on SF-295 CNS it was 0.288 µM; with SK-MEL-5 melanoma, 0.275 µM. Also, the TGI is 0.354 µM in the test on SN12C renal, 20.5 µM in the test with SR leukemia, 1.85 µM in the test on T-47D breast and 1.14 µM in the test on U251 CNS.
Consider `CCOC(=O)NC1=C(N2CC2)C(=O)C(NC(=O)OCC)=C(N2CC2)C1=O`, for which the GI50 was 15.1 µM and 8.56 µM with COLO 205 colon; 24.2 µM with EKVX NSCLC; 9.3 µM in the test with RPMI-8226 leukemia; 1.86 µM in the test on SF-295 CNS; 4.7 µM in the test on SK-MEL-5 melanoma; 3.3 µM and 3.06 µM in the test on SN12C renal. In addition, the GI50 in the test with SR leukemia was 0.389 µM; in the test on U251 CNS, 3.91 µM. The TGI in the test on COLO 205 colon is 25 µM and 33 µM and 51.1 µM; in the test on EKVX NSCLC, 25 µM and 16.1 µM; in the test on MDA-MB-231 breast, 15.3 µM; in the test on RPMI-8226 leukemia, 19 µM and 20.2 µM and 10.6 µM; in the test on SF-295 CNS, 25 µM and 23.3 µM and 31.4 µM; with SK-MEL-5 melanoma it was 15 µM and 9.97 µM and 7.95 µM. The TGI with SN12C renal was 25 µM and 14.2 µM and 7.15 µM; with SR leukemia, 7.9 µM and 60.6 µM; in the test with T-47D breast, 16.8 µM; with U251 CNS it was 20 µM and 10.8 µM and 9.77 µM.
For `COc1c2c(c(CC=C(C)C)c3oc(=O)c(-c4ccc(O)cc4)c(O)c13)OC(C)(C)C=C2`, the TGI was 40.2 µM in the test with COLO 205 colon; 95.8 µM with EKVX NSCLC; 65 µM with MDA-MB-231 breast; 75.3 µM in the test on RPMI-8226 leukemia; over 100 µM in the test on SF-295 CNS; 25.8 µM in the test on SK-MEL-5 melanoma. Further, the TGI with SN12C renal was over 100 µM; with SR leukemia, 79.9 µM; in the test on T-47D breast it was over 100 µM; in the test with U251 CNS, 27.8 µM.

Source of the values: PubChem BioAssay (NCI).
